Key:
[1] = Safety assessments (adverse events, vital signs, ECG, nasal irritation) in the clinical study; type: in vivo, human
Experimental: On dosing days, the order of assessments was ECG, vital signs, then PK blood collection when scheduled at the same nominal times. The target time of the PK blood collection was considered the most critical and if the collection was more than ±1 minute from the scheduled time for the first 60 minutes of collections or more than ±5 minutes for the scheduled time points thereafter, this was considered a protocol deviation. ECG and vital signs were collected within the 10-minute period before the nominal time of blood collections. At screening, admission, and discharge, ECG, and vital signs were checked once per day. […] Clinical laboratory measurements were repeated after the last PK blood draw prior to clinic discharge. AEs were assessed by spontaneous reports by subjects, by examination of the nasal mucosa, by measuring vital signs, ECG, and clinical laboratory parameters.
Safety Assessments. […] ECG and vital signs were performed within the 10-minute period before the nominal time for post-dose blood collections. Adverse events (AEs) were recorded from the start of study drug administration until clinic discharge.

[2] = Clinical pharmacokinetic crossover study of IN, IM and oral naltrexone; plasma naltrexone and 6β-naltrexol by LC-MS/MS; details: 4 mg IN; 5 minutes postdose
Source text: Study Goals. […] Secondary endpoints included adverse events (AEs), vital signs (heart rate, sitting blood pressure, and respiration rate), electrocardiogram (ECG), clinical laboratory changes and nasal irritation using the nasal irritation scale.
Study design. […] This was an in-patient open-label, crossover study involving approximately 14 healthy volunteers. […] Subjects stayed in the in-patient facility for 13 days to complete the entire study. Subjects were called 3 to 5 days after discharge to inquire concerning AEs and concomitant medications since discharge. Informed consent was obtained from all subjects, and all were screened for eligibility to participate in the study, including medical history, physical examination, clinical chemistry, coagulation markers, hematology, infectious disease serology, urinalysis, urine drug and alcohol toxicology screen, vital signs and ECG.
On days of study drug administration, a 12-lead ECG was performed approximately 1 hour prior to dosing and at approximately 1 and 4 hours post-dose. Vital signs were measured pre-dose and about 1 and 4 hours post-dose.
Study Drugs and Dosing. […] The IN (40 mg/mL) formulations were made by the staff pharmacist at Vince & Associates; the vehicle for the IN formulations was sterile water for injection. The IM formulation (2 mg/mL) was made by the staff pharmacist at Vince & Associates; the vehicle was sterile saline for injection.
Subjects stayed in the in-patient facility for 13 days to complete the entire study and were discharged 2 days after the fourth dose.
PK Assessments. […] Plasma was separated from whole blood and stored frozen at […] until assayed.
Analysis. […] Dose-adjusted values for AUCs and Cmax were calculated. The relative extent of IN and PO absorption (IN and PO versus IM) will be estimated from the dose-corrected AUCs.

[3] = reported to be as low as; Gonzalez and Brogden 1988; cited from earlier work
[4] = intranasal formulation with […] Intravail; cited from earlier work
[5] = same conditions as naltrexone; cited from earlier work

## O=C1CC[C@@]2(O)[C@H]3Cc4ccc(O)c5c4[C@@]2(CCN3CC2CC2)[C@H]1O5 [naltrexone, 17-(cyclopropylmethyl)-4,5a-epoxy-3,14-dihydroxymorphinan-6-one]
[1]; 5 subjects of 14
  Subjects with dizziness (most frequent AE regardless of severity or attribution): 36%
[1]; 7 subjects of 14
  Subjects with AEs of the Nervous System Disorders SOC (most frequent AEs): 50%
[1]; all dosing periods
  Severe AEs: No severe AEs were observed
[1]; dizziness after the first dose (4 mg IN), considered related to the study agent
  Moderate AEs: one
[1]; hypertension, syncope, out-of-range pre-dose vital signs
  Subjects discontinued from the study due to AEs: Three
[1]; mild syncope after the Day 1 dose (4 mg IN)
  Treatment-related unexpected AE: one
[1]; safety population, 10 of 14 subjects, any dosing period, any relationship to drug
  Subjects who experienced at least one AE: 71%
[1]; two UAEs considered unrelated to the study agent
  Subjects who experienced unexpected AEs: Three
[2]
  Difference of mean naltrexone concentrations with and without Intravail: 8 fold
[3]
  Oral bioavailability: 5%

## CNS(=O)(=O)Cc1ccc2[nH]cc(CCN(C)C)c2c1 [sumatriptan]
[4]
  Increase of maximum plasma concentration in comparison to Imitrex nasal spray: almost four-fold
  Increase of total exposure (AUC): 32%
  Tmax: 8 to 10 min

## C=C1CC[C@@]2(O)[C@H]3Cc4ccc(O)c5c4[C@@]2(CCN3CC2CC2)[C@H]1O5 [nalmefene, 17-cyclopropylmethyl-4,5α-epoxy-6-methylenemorphinan-3,14-diol]
[5]
  Change of AUC when an alkylsaccharide is added to the intranasal formulation: do not have increased AUC

From patent US20210077382A1, “COMPOSITIONS, DEVICES, AND METHODS FOR THE TREATMENT OF OPIOID-RECEPTOR-MEDIATED CONDITIONS” (Opiant Phamaceuticals, Inc., priority 2016, published 2021)
